Experiment: mn = molality of the nth substance listed, in mol/kg
Details: 86.8 kPa, Liquid; for viscosity: Capillary tube (Ostwald / Ubbelohde) method; for speed of sound: Sing-around technique in a fixed-path interferometer; for mass density: Vibrating tube method

CC(=O)Oc1ccccc1C(=O)O [2-acetoxybenzoic acid] + CC#N
Details | mass density, 288.15 K [kg/m3] | mass density, 298.15 K [kg/m3] | speed of sound, 288.15 K [m/s] | speed of sound, 298.15 K [m/s] | speed of sound, 308.15 K [m/s] | viscosity, 288.15 K [mPa·s] | viscosity, 298.15 K [mPa·s] | viscosity, 308.15 K [mPa·s]
m1 = 0.0402 | 789.756 | 778.992 | 1319.9 | 1279.3 | 1239 | 0.394 | 0.349 | 0.316
m1 = 0.0834 | 792.285 | 781.508 | 1320.3 | 1279.7 | 1239.3 | 0.398 | 0.353 | 0.319
m1 = 0.11 | 793.822 | 783.035 | 1320.6 | 1279.9 | 1239.5 | 0.402 | 0.355 | 0.322
m1 = 0.1394 | 795.495 | 784.705 | 1320.8 | 1280.2 | 1239.7 | 0.405 | 0.358 | 0.325
m1 = 0.1708 | 797.242 | 786.446 | 1321.1 | 1280.4 | 1240 | 0.408 | 0.362 | 0.328
m1 = 0.2076 | 799.277 | 788.483 | 1321.4 | 1280.7 | 1240.3 | 0.412 | 0.365 | 0.331
m1 = 0.2453 | 801.312 | 790.515 | 1321.8 | 1281 | 1240.5 | 0.416 | 0.369 | 0.334
m1 = 0.2705 | 802.661 | 791.87 | 1322 | 1281.2 | 1240.8 | 0.419 | 0.371 | 0.337
m1 = 0.3006 | 804.272 | 793.487 | 1322.2 | 1281.5 | 1241 | 0.422 | 0.375 | 0.34
